# Literature values in patent publication US20080014285A1, “METHOD OF TREATING NEURODEGENERATIVE BRAIN DISEASE WITH A COMPOSITE COMPRISING […] NANOPARTICLES AND A […] COMPOUND” (priority 2006, published 2008).
# How the values were obtained:
# [1] = system: glutamate-induced nitric oxide related neurotoxicity
# [2] = systemic administration; patients with intracranial hypertension
# [3] = peripheral administration, hypermagnesemia
# [4] = system: traumatic brain injury; conditions: administration no more than 12 hours post-trauma
# [5] = system: dopaminergic neurons; conditions: low dose; PD
compound,measurement,setting,value
CN(c1nc2ccccc2s1)C1CCN(C[C@H](O)COc2ccc(F)c(F)c2)CC1 [lubeluzole],glutamate-induced nitric oxide related neurotoxicity,[1],inhibits
O=S(=O)([O-])[O-].[Mg+2] [magnesium sulfate],CSF ionized magnesium concentration,[2],failed to increase
same,increase of plasma magnesium levels,[2],> 50%
same,total and ionized CSF [Mg],[3],only marginal increases
[Mg+2] [magnesium],brain magnesium homeostasis,[4],restores brain magnesium homeostasis
same,motor and cognitive outcome,[4],profoundly improves both motor and cognitive outcome
VEGF,neuroprotection of dopaminergic neurons,[5],neuroprotective
